Test results: PubChem BioAssay AID198 (DTP/NCI, 2004)
“And” between values parts separate entries of the source, which are not always exact repeats. Equal entries are not always repeated. Inconclusive results and toxic doses are left out. How the source made its calls: active means survival T/C of 150% or more; inactive means T/C below 125% in these data.

Test system: B16 melanoma ip, C57BL/6 mice, median survival T/C
Assay: NCI In Vivo Anticancer Drug Screen. Data for tumor model B16 Melanoma (intraperitoneal) in C57BL/6 mice
Settings: endpoint: median survival time, higher = longer survival
Protocol: The antitumor activity of compounds was measured in mice bearing transplantable tumors. Survival or tumor size were measured and the results are expressed as the measurement made in the treated group (T) divided by the measurement made in the vehicle treated control group (C). The tumor model used in this assay is B16 Melanoma (intraperitoneal) in C57BL/6 mice

[1] = dose: 0.25 mg/kg/injection, schedule: Q01DX009 (ip), vehicle: saline
[2] = dose: 0.5 mg/kg/injection, schedule: Q01DX009 (ip), vehicle: saline
[3] = dose: 1.0 mg/kg/injection, schedule: Q01DX009 (ip), vehicle: saline
[4] = dose: 25.0 mg/kg/injection, schedule: Q01DX009 (ip), vehicle: saline
[5] = dose: 50.0 mg/kg/injection, schedule: Q01DX009 (ip), vehicle: saline
[6] = dose: 100.0 mg/kg/injection, schedule: Q01DX009 (ip), vehicle: saline
[7] = dose: 12.5 mg/kg/injection, schedule: Q01DX009 (ip), vehicle: saline
[8] = dose: 200.0 mg/kg/injection, schedule: Q01DX009 (ip), vehicle: saline

Measured: T/C

O=C(N[C@H](CO)[C@H](O)c1ccc([N+](=O)[O-])cc1)C(Cl)Cl
inactive: dose: 62.5 mg/kg/injection, schedule: Q01DX009 (ip), vehicle: saline 106 % of control and 114 % of control | dose: 125.0 mg/kg/injection, schedule: Q01DX009 (ip), vehicle: saline 106 % of control and 107 % of control | dose: 250.0 mg/kg/injection, schedule: Q01DX009 (ip), vehicle: saline 106 % of control and 117 % of control | dose: 500.0 mg/kg/injection, schedule: Q01DX009 (ip), vehicle: saline 106 % of control and 107 % of control

CC(C)S(=O)(=O)/C(Cl)=C(/Cl)C(Cl)=C(Cl)Cl
inactive: dose: 25.0 mg/kg/injection, schedule: Q01DX009 (ip), vehicle: saline with Tween-80 94 % of control | dose: 50.0 mg/kg/injection, schedule: Q01DX009 (ip), vehicle: saline with Tween-80 97 % of control

CO[C@H](C(=O)[C@@H](O)[C@@H](C)O)[C@@H]1Cc2cc3cc(OC4CC(OC5CC(O)C(O)C(C)O5)C(O)C(C)O4)c(C)c(O)c3c(O)c2C(=O)[C@H]1OC1CC(OC2CC(OC3CC(C)(O)C(O)C(C)O3)C(O)C(C)O2)C(O)C(C)O1 (stereo partly drawn)
inactive: [1] 106 % of control | [2] 100 % of control | [3] 113 % of control

COc1cc(C[C@H]2c3cc(OC)c(OC)cc3CCN2C)c(Oc2cc3c(cc2OC)-c2c(OC)c(OC)cc4c2[C@H](C3)N(C)CC4)cc1OC
inactive: [4] 96 % of control | [5] 96 % of control | [6] 92 % of control

CN(C)CC(=O)c1ccc(O)c(O)c1
inactive: dose: 75.0 mg/kg/injection, schedule: Q01DX009 (ip), vehicle: saline 112 % of control | dose: 150.0 mg/kg/injection, schedule: Q01DX009 (ip), vehicle: saline 109 % of control | dose: 300.0 mg/kg/injection, schedule: Q01DX009 (ip), vehicle: saline 115 % of control | dose: 600.0 mg/kg/injection, schedule: Q01DX009 (ip), vehicle: saline 121 % of control

Cc1nc(N)sc1CCCl
inactive: dose: 10.0 mg/kg/injection, schedule: Q01DX009 (ip), vehicle: saline sonified 100 % of control | dose: 20.0 mg/kg/injection, schedule: Q01DX009 (ip), vehicle: saline sonified 107 % of control | dose: 40.0 mg/kg/injection, schedule: Q01DX009 (ip), vehicle: saline sonified 103 % of control | dose: 80.0 mg/kg/injection, schedule: Q01DX009 (ip), vehicle: saline sonified 107 % of control

O=C1CN(CCN2CC(=O)NC(=O)C2)CC(=O)N1
active: dose: 30.0 mg/kg/injection, schedule: Q01DX009 (ip), vehicle: saline 150 % of control

CCCC/C=C/CCCCCCCC(=O)OCCCCCCCCCCCCCCCC
inactive: dose: 400.0 mg/kg/injection, schedule: Q01DX001 (ip), vehicle: saline with Tween-80 86 % of control

COc1ccc(-c2c(C)c(C(=O)O)nc(-c3ccc4c(O)c(OC)c5c(c4n3)=NC(C)(C)N=5)c2N)c(O)c1OC
inactive: dose: 10.0 mg/kg/injection, schedule: Q01DX009 (ip), vehicle: saline 124 % of control | dose: 20.0 mg/kg/injection, schedule: Q01DX009 (ip), vehicle: saline 107 % of control

Cn1cc(NC(=O)c2cc(NC(=O)CN=C(N)N)cn2C)cc1C(=O)NCCC(=N)N
inactive: dose: 3.13 mg/kg/injection, schedule: Q01DX009 (ip), vehicle: saline 100 % of control and 107 % of control | dose: 6.25 mg/kg/injection, schedule: Q01DX009 (ip), vehicle: saline 100 % of control and 107 % of control | [7] 100 % of control | [4] 86 % of control

COc1ccc2c3c(c4cc(OC)c(OC)cc4c2c1)C[C@H]1CCCCN1C3
inactive: dose: 0.13 mg/kg/injection, schedule: Q01DX009 (ip), vehicle: saline 100 % of control | [1] 100 % of control and 119 % of control | [2] 113 % of control | [3] 90 % of control

Nc1ncnc2c1ccn2C1OC(CO)C(O)C1O (stereo not drawn)
inactive: dose: 0.32 mg/kg/injection, schedule: Q01DX009 (ip), vehicle: saline 93 % of control | dose: 0.63 mg/kg/injection, schedule: Q01DX009 (ip), vehicle: saline 96 % of control | dose: 1.25 mg/kg/injection, schedule: Q01DX009 (ip), vehicle: saline 100 % of control

CC(=O)[C@@]1(O)CC[C@H]2[C@@H]3C[C@H](C)C4=CC(=O)C=C[C@]4(C)[C@@]3(F)[C@@H](O)C[C@@]21C
inactive: [7] 105 % of control | dose: 12.5 mg/kg/injection, schedule: Q01DX009 (sc), vehicle: steriod suspending solution 106 % of control | [4] 105 % of control | dose: 25.0 mg/kg/injection, schedule: Q01DX009 (sc), vehicle: steriod suspending solution 103 % of control | [5] 100 % of control | [6] 100 % of control

CC(Cc1ccc(O)c(O)c1)C(C)Cc1ccc(O)c(O)c1 (stereo not drawn)
inactive: [5] 103 % of control | [6] 106 % of control | [8] 113 % of control | dose: 400.0 mg/kg/injection, schedule: Q01DX009 (ip), vehicle: saline 113 % of control

CNNCc1ccc(C(=O)NC(C)C)cc1
inactive: [5] 121 % of control | [6] 121 % of control | [8] 110 % of control and 121 % of control
